Experiments:
Type in all cases: in vivo
[1] = test system: Sphenoclea zeylanica GAERTN. (SPDZE); experiment: Herbicidal mixtures for weed control in transplanted paddy rice (in-water application, visual % injury)
Method: (§1) Weed seeds or nutlets of the desired test plant species were planted in puddled soil (mud) prepared by mixing a non-sterilized mineral soil (28 percent silt, 18 percent clay, and 54 percent sand, with a pH of about 7.3 to 7.8 and an organic matter content of about 1.0 percent) and water at a ratio of 100 kilograms (kg) of soil to 19 L of water. The prepared mud was dispensed in 250 mL aliquots into 480 mL non-perforated plastic pots with a surface area of 91.6 square centimeters leaving a headspace of 3 centimeters in each pot. Rice seeds were planted in Sun Gro MetroMix® 306 planting mixture, which typically has a pH of 6.0 to 6.8 and an organic matter content of about 30 percent, in plastic plug trays. Seedlings at the second or third leaf stage of growth were transplanted into 650 mL of mud contained in 960 mL non-perforated plastic pots with a surface area of 91.6 cm^2 4 days prior to herbicide application. The paddy was created by filling the 3 centimeter headspace of the pots with water. When required to ensure good germination and healthy plants, a fungicide treatment and/or other chemical or physical treatment was applied. The plants were grown for 4-14 days in a greenhouse with an approximate 14 hr photoperiod which was maintained at about 29° C. during the day and 26° C. during the night. Nutrients were added as Osmocote (17:6:10, N:P:K+minor nutrients) at 2 g per cup. Water was added on a regular basis to maintain the paddy flood, and supplemental lighting was provided with overhead metal halide 1000-Watt lamps as necessary. The plants were employed for testing when they reached the second or third true leaf stage.
(§2) Treatments consisted of esters or salts of compound A, compound C, or compound D and various herbicidal components alone and in combination. For technical grade compounds, a weighed amount, determined by the highest rate to be tested, was placed in an individual 120 mL glass vial and was dissolved in 20 mL of acetone to obtain concentrated stock solutions. […] The concentrated stock solutions obtained were diluted with 20 mL of an aqueous mixture containing 2.5% Agri-dex crop oil concentrate (v/v). For formulated compounds, a measured amount, determined by the highest rate to be tested, was placed in an individual 120 mL glass vial and was dissolved in 20 mL of 2.5% (v/v) Agri-dex crop oil concentrate to obtain concentrated stock solutions. The concentrated stock solutions obtained were diluted with 20 mL of acetone. Applications were made by injecting an appropriate amount of the stock solution into the aqueous layer of the paddy. Control plants were treated in the same manner with the solvent blank. All treated plant material received the same concentration of acetone and crop oil concentrate.
(§3) Forms of compounds A, C, and D were applied on an acid equivalent basis. Other herbicidal components were applied on an active ingredient basis and included acetolactate synthase (ALS)-inhibiting herbicides penoxsulam (triazolopyrimidine chemical class) applied as Grasp SC, […] (sulfonylurea chemical class) applied as Sirius G, and bensulfuron-methyl (sulfonylurea chemical class) applied as Londax; acetyl CoA carboxylase (ACCase) inhibiting herbicides cyhalofop-butyl applied as Clincher G and fenoxaprop-p-ethyl applied as Ricestar HT; auxinic herbicide quinclorac applied as Facet 75 DF; phytoene desaturase inhibiting herbicide norflurazon; and p-hydroxyphenylpyruvate dioxygenase (HPPD) inhibiting herbicide sulcotrione applied as Mikado.
(§4) The treated plants and control plants were placed in a greenhouse as described above and water was added as needed to maintain a paddy flood. After 3 weeks the condition of the test plants as compared with that of the untreated plants was determined visually and scored on a scale of 0 to 100 percent where 0 corresponds to no injury and 100 corresponds to complete kill.

[2] = test system: Scirpus maritimus L. (SCPMA); experiment: as above
Method: as §1, §2, §3, §4

Cyperus species (CYPSS) = experiment: as above
Method: as §1, §2, §3, §4

[3] = test system: Eleocharis kuroguwai OHWI (ELOKU); experiment: as above
Method: as §1, §2, §3, §4

[4] = test system: Leptochloa chinensis (L.) NEES (LEFCH); experiment: as above
Method: as §1, §2, §3, §4

[5] = test system: Fimbristylis miliacea (L.) VAHL (FIMMI); experiment: as above
Method: as §1, with “When required to ensure good germination and healthy plants, a fungicide treatment and/or other chemical or physical treatment was applied.” left out
as §2, §3, §4

[6] = test system: Echinochloa species (ECHSS); experiment: Herbicidal mixtures for weed control in transplanted paddy rice (in-water application, visual % injury after 3 weeks); details: ECHCG
Method: as §1, §2, §3, §4

[7] = test system: annual ryegrass (Lolium multiflorum L; LOLMG); experiment: Postemergence herbicidal activity of mixtures in cereal crops (greenhouse, visual injury); details: 15 g/ha, Table 1
Method in brief: (§5)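 Plants at second-third true leaf stage sprayed postemergence at 187 L/ha with compound and second cereal herbicide alone and combined; solvent blank controls. Visual injury scored 0-100% versus controls after 20-22 days; expected mixture effects by Colby's equation.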

[8] = test system: wild oats (Avena fatua L; AVEFA); experiment: as above; details: 15 g/ha, Table 1
Method in brief: as §5

[9] = test system: windgrass (Apera spica-venti L; APESV); experiment: as above; details: Apera spica-venti, post-emergence, 15 g/ha, Table 1; read-out: APESV Ob
Method in brief: as §5

[10] = test system: wild mustard (Sinapis arvensis L; SINAR); experiment: as above
Method in brief: (§6)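 Compounds A and B, as methyl ester or TEA/K salts, are tested alone and mixed with a second cereal herbicide on greenhouse plants at the second–third true leaf stage. Spray volume is 187 L/ha. Percent visual injury at 20–22 days is compared with Colby-expected mixture response.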

[11] = test system: lamb's-quarters (Chenopodium album L; CHEAL); experiment: as above; details: 15 g/ha
Method in brief: as §6

[12] = test system: chickweed (Stellaria media L; STEME); experiment: as above; details: Stellaria media, post-emergence, 15 g/ha; read-out: STEME Ob
Method in brief: as §6

[13] = test system: kochia (Kochia scoparia L; KCHSC); experiment: as above
Method in brief: as §6

[14] = test system: green foxtail (Setaria viridis L; SETVI); experiment: as above; details: 15 g/ha, Table 1
Method in brief: as §6

[15] = test system: blackgrass (Alopecurus myosuroides L; ALOMY); experiment: Postemergence herbicidal activity of mixtures in cereal crops (greenhouse, visual injury 0-100 percent after 20-22 days); details: 15 g/ha, Table 1
Method in brief: as §5

[16] = test system: bird's-eye speedwell (Veronica persica L; VERPE); experiment: Postemergence herbicidal activity of mixtures in cereal crops (greenhouse, visual injury)
Method in brief: (§7)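 Weeds grown in greenhouse (~14 h photoperiod, ~18/17 °C day/night) to second–third true leaf stage, sprayed postemergence with compound and second cereal herbicide alone or combined; solvent-blank controls. Injury scored visually after 20-22 days, 0–100% (complete kill); expected mixture activity = A+B−(A×B/100).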

[17] = test system: scented mayweed (Matricaria chamomila L; MATCH); experiment: as above
Method in brief: as §7

[18] = test system: wild pansy (Viola tricolor L; VIOTR); experiment: as above
Method in brief: as §7

[19] = test system: Scirpus maritimus L. (SCPMA); experiment: Postemergence herbicidal mixtures for weed control in direct seeded rice (greenhouse, visual % injury); details: alone 35 g/ha
Scirpus species (SCPSS) = experiment: Herbicidal mixtures for weed control in transplanted paddy rice (in-water application, visual % injury); details: SCPJU; 35 g/ha alone
Method: as §1, with “When required to ensure good germination and healthy plants, a fungicide treatment and/or other chemical or physical treatment was applied.” left out
as §2, §3, §4

[20] = test system: Fimbristylis miliacea (L.) VAHL (FIMMI); experiment: Postemergence herbicidal mixtures for weed control in direct seeded rice (greenhouse, visual % injury); details: alone 35 g/ha
[21] = test system: Polygonum pensylvanicum L. (POLPY); experiment: as above
[22] = test system: Digitaria sanguinalis (L.) SCOP. (DIGSA); experiment: as above
[23] = test system: Russian thistle (Salsola iberica L; SASKR); experiment: Postemergence herbicidal activity of mixtures in cereal crops (greenhouse, visual injury)
Method in brief: as §6

[24] = test system: Leptochloa chinensis (L.) NEES (LEFCH); experiment: Postemergence herbicidal mixtures for weed control in direct seeded rice (greenhouse, visual % injury); details: LEFCH; 70 g/ha alone
[25] = test system: ivy-leaved speedwell (Veronica hederifolia L; VERHE); experiment: Postemergence herbicidal activity of mixtures in cereal crops (greenhouse, visual injury); details: 12.5 g/ha
Method in brief: as §6

## CCN(CC)CC.COc1c(Cl)ccc(-c2cc(N)c(Cl)c(C(=O)O)n2)c1Cl [Compound C TEA]
[1]; 35 g/ha alone
  % Injury Ob: 50%
[1]; 70 g/ha alone
  % Injury Ob: 80%
[2]; 35 g/ha alone
  % Injury Ob: 0%
[2]; 70 g/ha alone
  % Injury Ob: 0%
Cyperus species (CYPSS); CYPES, 35 g/ha alone
  % Injury Ob: 0%
Cyperus species (CYPSS); CYPES, 70 g/ha alone
  % Injury Ob: 40%
Cyperus species (CYPSS); CYPIR, 35 g/ha alone
  % Injury Ob: 20%
Cyperus species (CYPSS); CYPIR, 70 g/ha alone
  % Injury Ob: 60%
[3]; 35 g/ha alone
  % Injury Ob: 0%
  % Injury Obs: 0%
[3]; 70 g/ha alone
  % Injury Ob: 50%
  % Injury Obs: 50%
[4]; 35 g/ha alone
  % Injury Ob: 50%
[4]; 70 g/ha alone
  % Injury Ob: 95%
[5]; 35 g/ha alone
  % Injury Ob: 0%
[5]; 70 g/ha alone
  % Injury Ob: 0%
[6]; 35 g/ha alone
  % Injury Ob: 0%
[6]; 70 g/ha alone
  % Injury Ob: 25%

## O=C(Nc1ccc(F)cc1F)c1cccnc1Oc1cccc(C(F)(F)F)c1 [Diflufenican, N-(2,4-difluorophenyl)-2-[3-(trifluoromethyl)phenoxy]-3-pyridinecarboxamide, reference compound]
[7]
  LOLMG Ob: 0%
[8]
  AVEFA Ob: 0%
[9]
  pest or weed control at 15 g/ha: 0%
[10]; 15 g/ha
  SINAR Ob: 0%
[11]
  CHEAL Ob: 0%
[12]
  pest or weed control at 15 g/ha: 3%
[13]; 12.5 g/ha alone
  KCHSC Ob: 12%
[14]
  SETVI Ob: 0%
[15]
  ALOMY Ob: 0%
[16]; Veronica persica, post-emergence, 12.5 g/ha alone, read-out: VERPE Ob
  pest or weed control at 12.5 g/ha: 7%
[16]; Veronica persica, post-emergence, 15 g/ha, read-out: VERPE Ob
  pest or weed control at 15 g/ha: 38%
[17]; Matricaria, post-emergence, 12.5 g/ha alone, read-out: MATCH Ob
  pest or weed control at 12.5 g/ha: 7%
[17]; Matricaria, post-emergence, 15 g/ha, read-out: MATCH Ob
  pest or weed control at 15 g/ha: 5%
[18]; Viola tricolor, post-emergence, 12.5 g/ha alone, read-out: VIOTR Ob
  pest or weed control at 12.5 g/ha: 35%
[18]; Viola tricolor, post-emergence, 15 g/ha, read-out: VIOTR Ob
  pest or weed control at 15 g/ha: 15%

## CCOC(=O)[C@@H](C)Oc1ccc(Oc2nc3ccc(Cl)cc3o2)cc1 [Fenoxaprop-p-ethyl]
[19]
  % Injury SCPMA Ob: 0%
[5]; 35 g/ha alone
  % Injury Ob: 0%
Scirpus species (SCPSS)
  % Injury Ob: 0%
[20]
  % Injury FIMMI Ob: 0%
[21]; alone 35 g/ha
  % Injury POLPY Ob: 0%

## O=C(O)CNCP(=O)(O)O [Glyphosate]
[22]; 70 g/ha alone
  % Injury Ob: 0%
[13]; 52.5 g/ha alone
  KCHSC Ob: 0%
[23]; 52.5 g/ha alone
  SASKR Ob: 0%
[24]
  % Injury Ob: 20%
[21]; POLPY, 70 g/ha alone
  % Injury Ob: 0%
[18]; Viola tricolor, post-emergence, read-out: VIOTR Ob
  pest or weed control at 52.5 g/ha: 52%

## O=C(Nc1ccc(F)cc1)c1cccc(Oc2cccc(C(F)(F)F)c2)n1 [Picolinafen]
[10]; 12.5 g/ha
  SINAR Ob: 5%
[13]; 12.5 g/ha
  KCHSC Ob: 5%
[23]; 15 g/ha alone
  SASKR Ob: 60%
[25]
  VERHE Ob: 5%
[16]; 12.5 g/ha
  VERPE Ob: 0%
[16]; 15 g/ha alone
  VERPE Ob: 43%
[17]; 15 g/ha alone
  MATCH Ob: 10%
[18]; 12.5 g/ha
  VIOTR Ob: 0%
[18]; 15 g/ha alone
  VIOTR Ob: 78%

## O=c1c(Cl)c[nH]c(Cl)c1Cl [Pyriclor]
[22]; 140 g/ha alone
  % Injury Ob: 80%
